# Experimental data taken from ChEMBL document CHEMBL5620353, “Novel antifungal triazoles with alkynyl-methoxyl side chains: Design, synthesis, and biological activity evaluation” (Eur J Med Chem, 2023).
# Activity calls are given as the source filed them. The calls are words filed in the database; no cut-off is given here.
# Columns and labels:
# Saccharomyces cerevisiae [1] = experiment: Antifungal activity against recombinant Saccharomyces cerevisiae Y2462 overexpressing ScErg11 ScNcp1 assessed as inhibition of fungal growth incubated for 48 hrs by microbroth dilution method; type: functional
# Saccharomyces cerevisiae [2] = experiment: Antifungal activity against recombinant Saccharomyces cerevisiae Y2374 overexpressing CgErg11 assessed as inhibition of fungal growth incubated for 48 hrs by microbroth dilution method; type: functional
# Nakaseomyces glabratus [3] = experiment: Antifungal activity against Candida glabrata 537 assessed as inhibition of fungal growth incubated for 48 hrs by microbroth dilution method; type: functional
# Saccharomyces cerevisiae [4] = experiment: Resistance index, ratio of MIC for recombinant Saccharomyces cerevisiae Y525 overexpressing CaMdr1 to MIC for recombinant Saccharomyces cerevisiae Y2411 overexpressing ScErg11; type: functional
# Candida albicans [5] = experiment: Antifungal activity against fluconazole-resistant Candida albicans 904 assessed as inhibition of fungal growth at 0.5 ug/ml incubated for 48 hrs by spot assay; type: functional, organism-based; settings: dose 0.5 µg/ml
# Candida albicans [6] = experiment: Antifungal activity against Candida albicans SC5314 assessed as inhibition of fungal growth at 4 ug/ml measured after 12 hrs by optical density based method; type: functional, organism-based; settings: dose 4.0 µg/ml
# Saccharomyces cerevisiae [7] = experiment: Antifungal activity against recombinant Saccharomyces cerevisiae Y2513 overexpressing ScErg11 Y140H assessed as inhibition of fungal growth incubated for 48 hrs by microbroth dilution method; type: functional
# [Candida] auris [8] = Antifungal activity against fluconazole-resistant Candida auris 919 assessed as inhibition of fungal growth incubated for 48 hrs by microbroth dilution method; type: functional; settings: Candidozyma auris
# Saccharomyces cerevisiae [9] = experiment: Antifungal activity against recombinant Saccharomyces cerevisiae Y2411 overexpressing ScErg11 assessed as inhibition of fungal growth incubated for 48 hrs by microbroth dilution method; type: functional
# Candida albicans [10] = experiment: Inhibition of biofilm formation in Candida albicans SC5314 at 64 ug/ml incubated for 24 hrs by XTT reduction assay relative to control; type: functional
# [11] = Selectivity index, ratio of IC50 for HUVEC cells to MIC for Candida glabrata 537; type: toxicity; settings: human, HUVEC cells versus Candida glabrata 537; read-out: Selectivity Index
# Candida albicans [12] = experiment: Antifungal activity against fluconazole-resistant Candida albicans 904 assessed as inhibition of fungal growth incubated for 48 hrs by microbroth dilution method; type: functional
# Candida albicans [13] = experiment: Antibiofilm activity against Candida albicans SC5314 preformed biofilms at 16 ug/ml incubated for 24 hrs by XTT reduction assay relative to control; type: functional; parameters: scale not given: the % may be the effect or the level left; settings: dose 16 µg/ml
# Candida albicans [14] = experiment: Antifungal activity against Candida albicans SC5314 assessed as reduction in fungal growth and viability at 2 ug/ml incubated for 48 hrs by spot assay; type: functional, organism-based; settings: dose 2.0 µg/ml
# Candida albicans [15] = experiment: Antifungal activity against Candida albicans SC5314 infected in Galleria mellonella larvae assessed as median survival time at 8 mg/kg measured after 10 days post inoculation; type: functional; settings: time 10 day
# Saccharomyces cerevisiae [16] = experiment: Antifungal activity against recombinant Saccharomyces cerevisiae Y2716 overexpressing CpErg11 Y132F CpCpr assessed as inhibition of fungal growth incubated for 48 hrs by microbroth dilution method; type: functional
# [Candida] auris [17] = Antifungal activity against Candida auris 891 assessed as inhibition of fungal growth at 0.5 ug/ml incubated for 48 hrs by spot assay; type: functional, organism-based; settings: Candidozyma auris, dose 0.5 µg/ml
# Candida albicans [18] = experiment: Antifungal activity against Candida albicans 10231 assessed as inhibition of fungal growth incubated for 48 hrs by microbroth dilution method; type: functional
# Candida albicans [19] = experiment: Antibiofilm activity against Candida albicans SC5314 preformed biofilms at 64 ug/ml incubated for 24 hrs by XTT reduction assay relative to control; type: functional; parameters: scale not given: the % may be the effect or the level left; settings: dose 64 µg/ml
# Saccharomyces cerevisiae [20] = experiment: Antifungal activity against recombinant Saccharomyces cerevisiae Y2459 overexpressing CaErg11 CaCpr assessed as inhibition of fungal growth incubated for 48 hrs by microbroth dilution method; type: functional
# Candida albicans [21] = experiment: Antibiofilm activity against Candida albicans SC5314 preformed biofilms at 4 ug/ml incubated for 24 hrs by XTT reduction assay relative to control; type: functional; parameters: scale not given: the % may be the effect or the level left; settings: dose 4 µg/ml
# Saccharomyces cerevisiae [22] = experiment: Antifungal activity against recombinant Saccharomyces cerevisiae Y2300 overexpressing ScErg11 assessed as inhibition of fungal growth incubated for 48 hrs by microbroth dilution method; type: functional
# [Candida] auris [23] = Antifungal activity against fluconazole-resistant Candida auris 918 assessed as inhibition of fungal growth incubated for 48 hrs by microbroth dilution method; type: functional; settings: Candidozyma auris
# Candida albicans [24] = experiment: Antifungal activity against Candida albicans SC5314 infected in Galleria mellonella larvae assessed as delay in time of larval death at 8 mg/kg measured after 10 days post inoculation; type: functional, organism-based; settings: time 10.0 day
# Saccharomyces cerevisiae [25] = experiment: Antifungal activity against recombinant Saccharomyces cerevisiae Y2301 overexpressing ScErg11 Y140F assessed as inhibition of fungal growth incubated for 48 hrs by microbroth dilution method; type: functional
# Candida albicans [26] = experiment: Antifungal activity against Candida albicans assessed as reduction in hyphal length at 16 ug/ml; type: functional, organism-based; settings: dose 16.0 µg/ml
# Cryptococcus neoformans [27] = experiment: Antifungal activity against Cryptococcus neoformans 32,609 assessed as inhibition of fungal growth at 0.5 ug/ml incubated for 48 hrs by spot assay; type: functional, organism-based; settings: dose 0.5 µg/ml
# Candida parapsilosis [28] = experiment: Antifungal activity against Candida parapsilosis 22019 assessed as inhibition of fungal growth at 0.5 ug/ml incubated for 48 hrs by spot assay; type: functional, organism-based; settings: dose 0.5 µg/ml
# Aspergillus fumigatus = experiment: Antifungal activity against Aspergillus fumigatus 7544 assessed as inhibition of fungal growth incubated for 72 hrs by microbroth dilution method; type: functional
# Candida parapsilosis [29] = experiment: Antifungal activity against Candida parapsilosis 22019 assessed as inhibition of fungal growth incubated for 48 hrs by microbroth dilution method; type: functional; settings: Lodderomyces parapsilosis
# Candida albicans [30] = experiment: Antifungal activity against Candida albicans assessed as increase in pseudohyphae at 16 ug/ml; type: functional, organism-based; settings: dose 16.0 µg/ml
# Saccharomyces cerevisiae [31] = experiment: Antifungal activity against recombinant Saccharomyces cerevisiae Y2721 overexpressing CpErg11 CpCpr assessed as inhibition of fungal growth incubated for 48 hrs by microbroth dilution method; type: functional
# [Candida] auris [32] = Antifungal activity against fluconazole-resistant Candida auris 891 assessed as inhibition of fungal growth incubated for 48 hrs by microbroth dilution method; type: functional; settings: Candidozyma auris
# Cryptococcus neoformans [33] = experiment: Antifungal activity against Cryptococcus neoformans 32,609 assessed as inhibition of fungal growth incubated for 72 hrs by microbroth dilution method; type: functional
# Candida albicans [34] = experiment: Antifungal activity against Candida albicans SC5314 infected in Galleria mellonella larvae assessed as larval survival rate at 8 mg/kg measured after 10 days post inoculation relative to control; type: functional; settings: SC5314, 240 h, time 10 day
# Nakaseomyces glabratus [35] = experiment: Antifungal activity against Candida glabrata 537 assessed as inhibition of fungal growth at 0.5 ug/ml incubated for 48 hrs by spot assay; type: functional, organism-based; settings: dose 0.5 µg/ml
# [36] = Selectivity index, ratio of IC50 for HUVEC cells to MIC for Candida albicans SC5314; type: toxicity; settings: human, HUVEC cells versus Candida albicans SC5314; read-out: Selectivity Index
# Candida albicans [37] = experiment: Antifungal activity against Candida albicans SC5314 assessed as inhibition of fungal growth at 0.5 ug/ml incubated for 48 hrs by spot assay; type: functional, organism-based; settings: dose 0.5 µg/ml
# [38] = target: Lanosterol 14-alpha demethylase (Candida albicans (strain SC5314 / ATCC MYA-2876) (Yeast), UniProt P10613); experiment: Inhibition of Lanosterol 14-alpha demethylase in Candida albicans SC5314 assessed as reduction in ergosterol level at 8 ug/ml incubated for 8 hrs by GC-MS analysis relative to control; settings: at 8 µg/mL
# Lanosterol 14-alpha demethylase, sequence (P10613 whole entry): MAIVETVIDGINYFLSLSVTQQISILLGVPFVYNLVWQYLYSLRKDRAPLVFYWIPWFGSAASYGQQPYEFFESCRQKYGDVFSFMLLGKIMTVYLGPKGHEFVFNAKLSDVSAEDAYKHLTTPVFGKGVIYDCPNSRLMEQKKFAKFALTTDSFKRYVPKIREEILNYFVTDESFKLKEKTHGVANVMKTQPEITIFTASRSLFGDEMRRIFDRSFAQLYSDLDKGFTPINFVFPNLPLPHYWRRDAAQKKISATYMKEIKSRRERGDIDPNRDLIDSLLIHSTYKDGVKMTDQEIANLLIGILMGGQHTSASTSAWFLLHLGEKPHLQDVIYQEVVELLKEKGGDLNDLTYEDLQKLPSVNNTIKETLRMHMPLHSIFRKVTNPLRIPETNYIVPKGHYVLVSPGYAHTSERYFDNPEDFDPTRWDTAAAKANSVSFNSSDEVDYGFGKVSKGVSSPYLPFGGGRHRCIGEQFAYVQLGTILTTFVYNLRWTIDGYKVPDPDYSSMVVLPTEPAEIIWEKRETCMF
# Candida albicans [39] = experiment: Antifungal activity against Candida albicans 904 assessed as reduction in fungal growth and viability at 2 ug/ml incubated for 48 hrs by spot assay; type: functional, organism-based; settings: dose 2.0 µg/ml
# Saccharomyces cerevisiae [40] = experiment: Antifungal activity against recombinant Saccharomyces cerevisiae Y525 overexpressing CaMdr1 assessed as inhibition of fungal growth incubated for 48 hrs by microbroth dilution method; type: functional
# Candida tropicalis = experiment: Antifungal activity against Candida tropicalis 8915 assessed as inhibition of fungal growth incubated for 48 hrs by microbroth dilution method; type: functional
# Candida albicans [41] = experiment: Antifungal activity against Candida albicans SC5314 assessed as inhibition of fungal growth incubated for 48 hrs by microbroth dilution method; type: functional
# Saccharomyces cerevisiae [42] = experiment: Antifungal activity against recombinant Saccharomyces cerevisiae Y570 overexpressing CaCdr1 assessed as inhibition of fungal growth incubated for 48 hrs by microbroth dilution method; type: functional
# [43] = Cytotoxicity against HUVEC cells assessed as cell survival at 128 ug/ml incubated for 24 hrs by CCK-8 assay relative to control; type: toxicity, cell-based; settings: human, at 128 µg/mL, read-out: Survival
# Pichia kudriavzevii = experiment: Antifungal activity against Candida krusei 4996 assessed as inhibition of fungal growth incubated for 48 hrs by microbroth dilution method; type: functional
# Candida albicans [44] = experiment: Antifungal activity against Candida albicans SC5314 infected in Galleria mellonella larvae assessed as protection against fungal infection at 2 mg/kg measured after 10 days post inoculation; type: functional, organism-based; settings: time 10.0 day
# Candida albicans [45] = experiment: Antifungal activity against Candida albicans 10231 assessed as inhibition of fungal growth at 0.5 ug/ml incubated for 48 hrs by spot assay; type: functional, organism-based; settings: dose 0.5 µg/ml
# Candida albicans [46] = experiment: Antifungal activity against fluconazole-resistant Candida albicans 901 assessed as inhibition of fungal growth incubated for 48 hrs by microbroth dilution method; type: functional
compound,measurement,setting,value
OC(Cn1cncn1)(Cn1cncn1)c1ccc(F)cc1F [FLUCONAZOLE],MIC,Saccharomyces cerevisiae [1],8 µg/mL
same,MIC,Saccharomyces cerevisiae [2],4 µg/mL
same,MIC,Nakaseomyces glabratus [3],1 µg/mL
same,Ratio,Saccharomyces cerevisiae [4],32
same,Activity,Candida albicans [5],inactive
same,Activity,Candida albicans [6],Active
same,MIC,Saccharomyces cerevisiae [7],8 µg/mL
same,MIC,[Candida] auris [8],> 256 µg/mL
same,MIC,Saccharomyces cerevisiae [9],1 µg/mL
same,inhibition at 64 µg/mL,Candida albicans [10],26.1%
same,selectivity ratio,[11],50
same,MIC,Candida albicans [12],> 256 µg/mL
same,Activity,Candida albicans [13],34.47%
same,Activity,Candida albicans [14],Active
same,MST,Candida albicans [15],10 days
same,MIC,Saccharomyces cerevisiae [16],32 µg/mL
same,Activity,[Candida] auris [17],inactive
same,MIC,Candida albicans [18],> 64 µg/mL
same,Activity,Candida albicans [19],33.39%
same,MIC,Saccharomyces cerevisiae [20],2 µg/mL
same,Activity,Candida albicans [21],31.38%
same,MIC,Saccharomyces cerevisiae [22],4 µg/mL
same,MIC,[Candida] auris [23],> 256 µg/mL
same,Activity,Candida albicans [24],Active
same,MIC,Saccharomyces cerevisiae [25],8 µg/mL
same,Activity,Candida albicans [26],Active
same,Activity,Cryptococcus neoformans [27],inactive
same,Activity,Candida parapsilosis [28],inactive
same,MIC,Aspergillus fumigatus,> 64 µg/mL
same,MIC,Candida parapsilosis [29],4 µg/mL
same,Activity,Candida albicans [30],Active
same,MIC,Saccharomyces cerevisiae [31],4 µg/mL
same,MIC,[Candida] auris [32],> 256 µg/mL
same,MIC,Cryptococcus neoformans [33],2 µg/mL
same,survival at 8 mg/kg,Candida albicans [34],46.7%
same,Activity,Nakaseomyces glabratus [35],inactive
same,selectivity ratio,[36],100
same,Activity,Candida albicans [37],inactive
same,inhibition (INH),[38],~ 100%
same,Activity,Candida albicans [39],Active
same,MIC,Saccharomyces cerevisiae [40],32 µg/mL
same,MIC,Candida tropicalis,> 64 µg/mL
same,MIC,Candida albicans [41],0.5 µg/mL
same,MIC,Saccharomyces cerevisiae [42],> 64 µg/mL
same,"viability at 24 h, 128 ug/ml",[43],43.7%
same,MIC,Pichia kudriavzevii,64 µg/mL
same,Activity,Candida albicans [44],Active
same,Activity,Candida albicans [45],inactive
same,MIC,Candida albicans [46],> 256 µg/mL
C[C@@H](c1ncncc1F)[C@](O)(Cn1cncn1)c1ccc(F)cc1F [VORICONAZOLE],MIC,Saccharomyces cerevisiae [1],0.063 µg/mL
same,MIC,Saccharomyces cerevisiae [2],0.031 µg/mL
same,Ratio,Saccharomyces cerevisiae [4],64
same,MIC,Saccharomyces cerevisiae [7],0.031 µg/mL
same,MIC,Saccharomyces cerevisiae [9],0.008 µg/mL
same,MIC,Saccharomyces cerevisiae [16],0.25 µg/mL
same,MIC,Saccharomyces cerevisiae [20],0.016 µg/mL
same,MIC,Saccharomyces cerevisiae [22],0.031 µg/mL
same,MIC,Saccharomyces cerevisiae [25],0.031 µg/mL
same,MIC,Saccharomyces cerevisiae [31],0.063 µg/mL
same,MIC,Saccharomyces cerevisiae [40],0.5 µg/mL
same,MIC,Saccharomyces cerevisiae [42],8 µg/mL
